According to patent publication US20190046627A1, “USE OF A GNP-LLO91-99 COMPLEX FOR THE TREATMENT AND PREVENTION OF CANCER” (FUNDACIÓN INSTITUTO DE INVESTIGACIÓN MARQUES DE VALDECILLA, priority 2016, published 2019):
Entries after “also recorded” stand apart in the source; their conditions may differ. No end group written: not given here.

What was measured:
A-375, human melanoma [1] = assay: In vitro apoptosis-necrosis, flow cytometry annexin V-APC / 7-ADD; type: cell-based; conditions: 10 μg/ml, 16 hours, A375
Protocol: (§1) 1.—Tumor cells. The cells used are: Hepa1-6, murine hepatocarcinoma, TC-1, murine lung carcinoma; B16F10, murine melanoma; A-375, human melanoma; hamster melanoma (ATCC).
(§2) 2.—In vitro apoptosis-necrosis. The different tumor cells (1×10^6 cells) are treated with 10 μg/ml of the GNP-LLO91-99 gold nanoparticles in culture plates, 16 hours prior to the apoptosis-necrosis analysis, including cells of each type of tumor without treatment with the gold nanoparticles (control). Following washing, the cells are analyzed by means of flow cytometry using two specific products, annexin V conjugated with the APC fluorochrome and the fluorescent marker for binding to DNA, 7-ADD (7-amino-actinomycin D). Apoptosis and necrosis in the tumor cells are analyzed by means of the differential marking with annexin V-APC and 7-ADD expressed as percentages. While the necrosis is indicated as the percentage of cells doubly marked with annexin V-APC and 7-ADD, the apoptosis is expressed as the percentage of cells marked only with annexin V.

B16F10, murine melanoma [2] = assay: as above; type: cell-based; conditions: 10 μg/ml, 16 hours
Protocol: as §1, §2

[3] = test system: TC-1, murine lung carcinoma; assay: as above; type: cell-based; conditions: 10 μg/ml, 16 hours
Protocol: as §1, §2

[4] = test system: Hepa1-6, murine hepatocarcinoma; assay: as above; type: cell-based; conditions: 10 μg/ml, 16 hours
Protocol: as §1, §2

lung cancer cells (TC-1) = assay: In vitro activation cell markers, flow cytometry; type: cell-based, murine; conditions: 10 μg/ml pre-treatment
Protocol: as §1
(§3) 3.—Study of in vitro activation cell markers. The markers of the cell surface of the different tumor cells (1×10^6 cells) that are pre-treated or that are not pre-treated with 10 μg/ml of the GNP-LLO91-99 gold nanoparticles similar to the apoptosis process are analyzed by means of flow cytometry using the following antibodies (Miltenyi Biotech): anti-CD86-V450, anti-CD80-FITC, anti-MHC-II-APC, CD11c-PE, anti-NCAM-PE, anti-PD-1-V450.

[5] = test system: hepatocarcinoma (Hepa 1-6); assay: In vitro activation cell markers, flow cytometry; type: cell-based, murine; conditions: 10 μg/ml pre-treatment
Protocol: as §1, §3

glioblastoma (RG-1) [6] = assay: In vitro apoptosis-necrosis, flow cytometry annexin V-APC / 7-ADD; type: cell-based; conditions: 10 μg/ml, 16 hours
Protocol: as §2

murine melanoma B16F10 [7] = assay: Reduction of the size of the tumor in newborns (Example 6); type: in vivo; conditions: 9-day old Balb/c mice, s.c. B16F10 established 5 days, 50 μg/ml in the tumors for 5 days
Protocol: For the study of the reduction of the size of the tumor in newborns making use of different therapies and their comparison with that of the invention, 5×10^5 cells of murine melanoma B16F10 were inoculated in a subcutaneous manner in the interscapular area of 9-day old female mice of the Balb/c strain.
Following 5 days post-inoculation, 50 μg/ml of the following therapies were inoculated in the tumors for 5 days: LLO91-99 (only peptide from listeriolysin O of Listeria monocytogenes, LLO91-99), GNP (empty gluconanoparticles), GNP-LLO91-99 (gluconanoparticles synthesized with the peptide from listeriolysin O of Listeria monocytogenes, LLO91-99), GNP-GAPDH1-22 (nanoparticles synthesized with the peptide from glyceraldehyde-3-phosphate dehydrogenase of Listeria monocytogenes, GAPDH1-22). As a control, a vector previously used in therapy was also included, dendritic cells loaded with the LLO91-99 (1×10^5 DC-LLO91-99) peptide.
Following this treatment, the mice were sacrificed and the tumors recovered, measuring their size with a gauge.

A-375, human melanoma [8] = assay: In vitro activation cell markers, flow cytometry; type: cell-based; conditions: 10 μg/ml pre-treatment, A375
Protocol: as §1, §3

B16F10, murine melanoma [9] = assay: In vitro activation cell markers, flow cytometry; type: cell-based; conditions: 10 μg/ml pre-treatment
Protocol: as §1, §3

murine melanoma B16F10 [10] = assay: Metastasis in the lung from murine melanoma (Example 3); type: in vivo, mice; conditions: s.c. B16F10, 50 μg/ml inoculated in the tumors for 5 days
Protocol: For the study of metastasis in the lung of murine melanoma following the use of different therapies and their comparison with that of the invention, 1×10^6 cells of murine melanoma B16F10 were inoculated in a subcutaneous manner just like in FIG. 1. Following 7 days post-inoculation, 50 μg/ml of the following therapeutic particles were inoculated in the tumors for 5 days: GNP (empty gluconanoparticles), GNP-LLO91-99 (gluconanoparticles synthesized with the peptide from listeriolysin O of Listeria monocytogenes, LLO91-99), GNP-GAPDH1-22 (nanoparticles synthesized with the peptide from glyceraldehyde-3-phosphate dehydrogenase of Listeria monocytogenes, GAPDH1-22) or no particle (NT). As a control, the vector previously used in therapy was also included consisting of dendritic cells loaded with the LLO91-99 (1×10^6 DC-LLO91-99) peptide.
Following this treatment, the mice were sacrificed and the lungs removed, which were washed with PBS. Subsequently, the tumor nodules were counted under a magnifying glass, which were observed as black spots on the lungs.

hepatocarcinomas = assay: Subcutaneous tumor transplant model (Example 9); type: in vivo, mice; conditions: subcutaneous transplants, C57BL/6, 50 μg/ml in-situ for 7 days
Protocol: as §1
(§4) 4.—Subcutaneous tumor transplant model. 8-12 week old females of the strain C57BL/6 are inoculated in the right flank with 1×10^5 tumor cells for 7 days in order to develop a measurable tumor (4-6 mm thickness). Subsequently, the tumors are inoculated in-situ with 50 μg/ml of the GNP-LLO91-99 gold nanoparticles for 7 days. The size of the tumors is measured with a gauge and is expressed in volume using the following formula: (length×(width)^2)/2.

lung cancer cells = assay: Subcutaneous tumor transplant model (Example 9); type: in vivo, mice; conditions: subcutaneous transplants, C57BL/6, 50 μg/ml in-situ for 7 days
Protocol: as §1, §4

melanomas = assay: Subcutaneous tumor transplant model (Example 9); type: in vivo, mice; conditions: subcutaneous transplants, C57BL/6, 50 μg/ml in-situ for 7 days
Protocol: as §1, §4

ovary tumor cells (CHO) = assay: In vitro activation cell markers, flow cytometry; type: cell-based, hamster; conditions: 10 μg/ml pre-treatment
Protocol: as §1, §3

glioblastoma (RG-1) [11] = assay: In vitro activation cell markers, flow cytometry; type: cell-based; conditions: 10 μg/ml pre-treatment
Protocol: as §3

ovary tumor cells = assay: Subcutaneous tumor transplant model (Example 9); type: in vivo, mice; conditions: subcutaneous transplants, C57BL/6, 50 μg/ml in-situ for 7 days

GNP-LLO91-99: gluconanoparticles synthesized with the peptide from listeriolysin O of Listeria monocytogenes, LLO91-99 (GYKDGNEYI; also: gold glyconanoparticle conjugate; UniProt P13128 91-99, looked up, fragment)
effect of inducing apoptosis (A-375, human melanoma [1]): much more pronounced | effect of inducing apoptosis (B16F10, murine melanoma [2]): much more pronounced | effect of inducing apoptosis [3]: much more pronounced | induction of tumor apoptosis and necrosis [3]: induce both tumor apoptosis and necrosis | effect of inducing apoptosis [4]: much more pronounced | induction of tumor apoptosis and necrosis [4]: induce both tumor apoptosis and necrosis | expression of immune cell activation markers (lung cancer cells (TC-1)): only boosted the expression of MHC-I | expression of immune cell activation markers ([5]; Hepa 1-6): boosted the expression of various activation markers such as MHC-I, MHC-II, CD80 and PD-1 | expression of PD-1 ([5]; hepatocarcinomas): high expression of PD-1 | effect of inducing apoptosis (glioblastoma (RG-1) [6]): not as significant | induction of tumor apoptosis and necrosis (glioblastoma (RG-1) [6]): induce both necrosis and apoptosis with the same percentages; also recorded: induce both tumor apoptosis and necrosis | tumor regression in newborns (murine melanoma B16F10 [7]): 95% | expression of immune cell activation markers (A-375, human melanoma [8]): boosted the expression of various activation markers such as MHC-I, MHC-II, CD80 and PD-1 | expression of immune cell activation markers (B16F10, murine melanoma [9]): boosted the expression of various activation markers such as MHC-I, MHC-II, CD80 and PD-1 | formation of metastasis in the lungs (in words) (murine melanoma B16F10 [10]): prevents the formation of metastasis in the lungs | prevention of the formation of metastasis in the lungs (murine melanoma B16F10 [10]; lung tumor nodules counted): more than 95% | in vivo inhibitory effect of the tumor (hepatocarcinomas): inhibitory effect of the tumor is also observed in vivo | in vivo inhibitory effect of the tumor (lung cancer cells): inhibitory effect of the tumor is also observed in vivo | in vivo inhibitory effect of the tumor (melanomas): inhibitory effect of the tumor is also observed in vivo | expression of immune cell activation markers (ovary tumor cells (CHO)): did not undergo a variation in any of the markers analyzed | expression of MHC-I (glioblastoma (RG-1) [11]): inhibition | expression of MHC-II (glioblastoma (RG-1) [11]): no variation | expression of NCAM-1 (glioblastoma (RG-1) [11]): no variation | expression of immune cell activation markers (glioblastoma (RG-1) [11]): no induction of expression of activation markers | in vivo inhibitory effect of the tumor (ovary tumor cells): does not cause any effect
